# According to patent publication US20220306659A1, “COMPOUND INHIBITING AND INDUCING DEGRADATION OF EGFR AND ALK” (BEIJING TIDE PHARMACEUTICAL CO., LTD., priority 2019, published 2022):
# Target: Ba/F3(EGFR^Del19/T790M/C797S) cells (Homo sapiens, UniProt P00533, DEL746-750/T790M/C797S, cells depend on it)
# Experiment: Assay of activity on Ba/F3 cells (CTG, 72 h)
# Assay type: cell-based
# Conditions: read-out: IC50 (nM) Ba/F3 (EGFR^Del19/T790M/C797S)
# Protocol: (2) A compound stock solution was prepared, and then diluted 3× to obtain a compound dilution. 30 nL of the compound dilution was added to a 384-well plate by Echo (Labcyte, Echo550). The cells were incubated in an incubator at 37° C. and 5% CO2 for 72 h.
# The percent inhibition rate (% inhibition) was calculated by the following formula
# LUMcmpd: Luminescence value of assay compound.
# LUMpositive: Average LUM value of positive drug at a concentration of 10 μM.
# LUMvehicle. Average LUM value of negative control group without drug treatment.
# The nonlinear regression curve (dose response-variable slope) between the value of inhibition rate (%) and the logarithm of compound concentration was fitted with graphpad prism 8.0, the effect dose curve of compound was drawn, and the IC50 value was calculated.
# Y=Bottom+(Top−Bottom)/(1+1^((LogIC50−X)*HillSlope))
# X-axis: logarithm of compound concentration; Y axis: inhibition rate ([…]).
# Sequence of Ba/F3(EGFR^Del19/T790M/C797S) cells (P00533 with tags, fused parts or gaps DEL746-750/T790M/C797S): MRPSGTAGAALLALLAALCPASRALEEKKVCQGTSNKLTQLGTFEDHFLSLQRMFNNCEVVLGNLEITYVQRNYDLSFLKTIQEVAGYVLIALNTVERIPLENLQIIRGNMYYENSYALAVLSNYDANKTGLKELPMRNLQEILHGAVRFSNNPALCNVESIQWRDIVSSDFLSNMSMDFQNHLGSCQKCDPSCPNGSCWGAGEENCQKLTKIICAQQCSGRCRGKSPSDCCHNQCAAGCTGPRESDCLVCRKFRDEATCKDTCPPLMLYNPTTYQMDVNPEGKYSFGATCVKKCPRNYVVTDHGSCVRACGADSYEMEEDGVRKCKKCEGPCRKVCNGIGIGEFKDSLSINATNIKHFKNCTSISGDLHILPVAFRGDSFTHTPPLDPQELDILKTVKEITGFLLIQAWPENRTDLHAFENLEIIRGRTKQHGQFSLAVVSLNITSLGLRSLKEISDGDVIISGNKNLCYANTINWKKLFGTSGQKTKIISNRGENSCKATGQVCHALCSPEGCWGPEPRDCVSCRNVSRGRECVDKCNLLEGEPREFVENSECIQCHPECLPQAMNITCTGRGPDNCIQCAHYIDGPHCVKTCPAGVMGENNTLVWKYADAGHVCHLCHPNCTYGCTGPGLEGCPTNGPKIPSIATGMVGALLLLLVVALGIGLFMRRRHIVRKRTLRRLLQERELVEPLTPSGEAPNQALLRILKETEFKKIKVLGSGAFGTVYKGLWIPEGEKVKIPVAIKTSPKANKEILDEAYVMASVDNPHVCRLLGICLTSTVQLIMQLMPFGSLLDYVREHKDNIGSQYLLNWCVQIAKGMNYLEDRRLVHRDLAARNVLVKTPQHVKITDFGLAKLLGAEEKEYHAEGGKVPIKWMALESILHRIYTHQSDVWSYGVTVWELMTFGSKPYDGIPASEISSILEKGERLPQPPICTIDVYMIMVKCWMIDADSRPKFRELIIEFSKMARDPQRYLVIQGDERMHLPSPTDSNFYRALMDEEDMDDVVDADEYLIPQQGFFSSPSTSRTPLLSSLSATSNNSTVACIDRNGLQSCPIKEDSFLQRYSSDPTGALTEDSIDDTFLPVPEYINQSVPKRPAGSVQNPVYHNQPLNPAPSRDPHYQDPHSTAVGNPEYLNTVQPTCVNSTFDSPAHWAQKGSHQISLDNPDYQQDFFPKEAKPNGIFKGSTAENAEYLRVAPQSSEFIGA
row,GI50 [nM],Compound
1,1 to 100,"COc1cc(N2CCC(N3CCN(CCCCCC#Cc4cc(Cl)cc5c4CN(C4CCC(=O)NC4=O)C5=O)CC3)CC2)ccc1Nc1ncc(Cl)c(Nc2ccccc2P(C)(C)=O)n1 (stereo not drawn) [Compound C202, 3-(6-chloro-4-(7-(4-(1-(4-((5-chloro-4-((2-(dimethylphosphoryl)phenyl)amino)pyrimidin-2-yl)amino)-3-methoxyphenyl)piperidin-4-yl)piperazin-1-yl)hept-1-yn-1-yl)-1-oxoisoindolin-2-yl)piperidine-2,6-dione]"
2,1 to 100,"COc1cc(N2CCC(N3CCN(CCCCCC#Cc4cc(C#N)cc5c4CN(C4CCC(=O)NC4=O)C5=O)CC3)CC2)ccc1Nc1ncc(Cl)c(Nc2ccccc2P(C)(C)=O)n1 (stereo not drawn) [Compound C204, 7-(7-(4-(1-(4-((5-chloro-4-((2-(dimethylphosphoryl)phenyl)amino)pyrimidin-2-yl)amino)-3-methoxyphenyl)piperidin-4-yl)piperazin-1-yl)hept-1-yn-1-yl)-2-(2,6-dioxopiperidin-3-yl)-3-oxoisoindoline-5-carbonitrile]"
3,1 to 100,"COc1cc(N2CCC3(CCN(CCCCCCOc4cccc5c4CN(C4CCC(=O)NC4=O)C5=O)CC3)CC2)c(C)cc1Nc1ncc(Br)c(Nc2ccc3nccnc3c2P(C)(C)=O)n1 (stereo not drawn) [Compound C212, 3-(4-((6-(9-(4-((5-bromo-4-((5-(dimethylphosphoryl)quinoxalin-6-yl)amino)pyrimidin-2-yl)amino)-5-methoxy-2-methylphenyl)-3,9-diazaspiro[5.5]undecan-3-yl)hexyl)oxy)-1-oxoisoindolin-2-yl)piperidine-2,6-dione]"
4,1 to 100,"COc1cc(N2CCC(N3CCN(CCCC#Cc4ccc5c(c4)CN(C4CCC(=O)NC4=O)C5=O)CC3)CC2)ccc1Nc1ncc(Cl)c(Nc2ccccc2P(C)(C)=O)n1 (stereo not drawn) [Compound C218, 3-(5-(5-(4-(1-(4-((5-chloro-4-((2-(dimethylphosphoryl)phenyl)amino)pyrimidin-2-yl)amino)-3-methoxyphenyl)piperidin-4-yl)piperazin-1-yl)pent-1-yn-1-yl)-1-oxoisoindolin-2-yl)piperidine-2,6-dione]"
5,1 to 100,"COc1cc(N2CCC(N3CCN(CCCCCC#Cc4cc(C#N)cc5c4CN(C4CCC(=O)NC4=O)C5=O)CC3)CC2)c(C)cc1Nc1ncc(Br)c(Nc2ccc3nccnc3c2P(C)(C)=O)n1 (stereo not drawn) [Compound C229, 7-(7-(4-(1-(4-((5-bromo-4-((5-(dimethylphosphoryl)quinoxalin-6-yl)amino)pyrimidin-2-yl)amino)-5-methoxy-2-methylphenyl)piperidin-4-yl)piperazin-1-yl)hept-1-yn-1-yl)-2-(2,6-dioxopiperidin-3-yl)-3-oxoisoindoline-5-carbonitrile]"
6,1 to 100,"COc1cc(N2CCC(N3CCN(CCCCCCc4cccc5c4CN(C4CCC(=O)NC4=O)C5=O)CC3)CC2)ccc1Nc1ncc(Cl)c(Nc2ccccc2P(C)(C)=O)n1 (stereo not drawn) [Compound C238, 3-(4-(6-(4-(1-(4-((5-chloro-4-((2-(dimethylphosphoryl)phenyl)amino)pyrimidin-2-yl)amino)-3-methoxyphenyl)piperidin-4-yl)piperazin-1-yl)hexyl)-1-oxoisoindolin-2-yl)piperidine-2,6-dione]"
7,1 to 100,"COc1cc(N2CCC(N3CCN(CCCCCCCCc4cccc5c4CN(C4CCC(=O)NC4=O)C5=O)CC3)CC2)ccc1Nc1ncc(Cl)c(Nc2ccccc2P(C)(C)=O)n1 (stereo not drawn) [Compound C240, 3-(4-(8-(4-(1-(4-((5-chloro-4-((2-(dimethylphosphoryl)phenyl)amino)pyrimidin-2-yl)amino)-3-methoxyphenyl)piperidin-4-yl)piperazin-1-yl)octyl)-1-oxoisoindolin-2-yl)piperidine-2,6-dione]"

# Continued, molecule first:
row,Compound,GI50 [nM]
1,"COc1cc(N2CCC(N3CCN(CCCC#Cc4cccc5c4CN(C4CCC(=O)NC4=O)C5=O)CC3)CC2)ccc1Nc1ncc(Cl)c(Nc2ccccc2P(C)(C)=O)n1 (stereo not drawn) [Compound C126, 3-(4-(5-(4-(1-(4-((5-chloro-4-((2-(dimethylphosphoryl)phenyl)amino)pyrimidin-2-yl)amino)-3-methoxyphenyl)piperidin-4-yl)piperazin-1-yl)pent-1-yn-1-yl)-1-oxoisoindolin-2-yl)piperidine-2,6-dione]",1 to 100
2,COc1cc(N2CCC(N3CCNCC3)CC2)c(C)cc1Nc1ncc(Br)c(Nc2ccc3nccnc3c2P(C)(C)=O)n1 [Compound C158-1],1 to 100
3,"COc1cc(N2CCC(N3CCN(CCCCCCCCC#Cc4cccc5c4CN(C4CCC(=O)NC4=O)C5=O)CC3)CC2)ccc1Nc1ncc(Cl)c(Nc2ccccc2P(C)(C)=O)n1 (stereo not drawn) [Compound C179, 3-(4-(10-(4-(1-(4-((5-chloro-4-((2-(dimethylphosphoryl)phenyl)amino)pyrimidin-2-yl)amino)-3-methoxyphenyl)piperidin-4-yl)piperazin-1-yl)dec-1-yn-1-yl)-1-oxoisoindolin-2-yl)piperidine-2,6-dione]",1 to 100
4,"COc1cc(N2CCC3(CCN(CCCCCC#Cc4cc(F)cc5c4CN(C4CCC(=O)NC4=O)C5=O)CC3)CC2)c(C)cc1Nc1ncc(Br)c(Nc2ccc3nccnc3c2P(C)(C)=O)n1 (stereo not drawn) [Compound C185, 3-(4-(7-(9-(4-((5-bromo-4-((5-(dimethylphosphoryl)quinoxalin-6-yl)amino)pyrimidin-2-yl)amino)-5-methoxy-2-methylphenyl)-3,9-diazaspiro[5.5]undecan-3-yl)hept-1-yn-1-yl)-6-fluoro-1-oxoisoindolin-2-yl)piperidine-2,6-dione]",1 to 100
5,"COc1cc(N2CCC(N3CCN(CCOCC#Cc4cc(C(F)(F)F)cc5c4CN(C4CCC(=O)NC4=O)C5=O)CC3)CC2)ccc1Nc1ncc(Cl)c(Nc2ccccc2P(C)(C)=O)n1 (stereo not drawn) [Compound C200, 3-(4-(3-(2-(4-(1-(4-((5-chloro-4-((2-(dimethylphosphoryl)phenyl)amino)pyrimidin-2-yl)amino)-3-methoxyphenyl)piperidin-4-yl)piperazin-1-yl)ethoxy)prop-1-yn-1-yl)-1-oxo-6-(trifluoromethyl)isoindolin-2-yl)piperidine-2,6-dione]",101 to 200
6,"COc1cc(N2CCC(N3CCN(CCCC#Cc4cccc5c4CN(C4CCC(=O)NC4=O)C5=O)CC3)CC2)c(C)cc1Nc1ncc(Br)c(Nc2ccc3nccnc3c2P(C)(C)=O)n1 (stereo not drawn) [Compound C227, 3-(4-(5-(4-(1-(4-((5-bromo-4-((5-(dimethylphosphoryl)quinoxalin-6-yl)amino)pyrimidin-2-yl)amino)-5-methoxy-2-methylphenyl)piperidin-4-yl)piperazin-1-yl)pent-1-yn-1-yl)-1-oxoisoindolin-2-yl)piperidine-2,6-dione]",1 to 100
7,"COc1cc(N2CCC3(CCN(CCCC#Cc4cccc5c4CN(C4CCC(=O)NC4=O)C5=O)CC3)CC2)c(C)cc1Nc1ncc(Br)c(Nc2ccc3nccnc3c2P(C)(C)=O)n1 (stereo not drawn) [Compound C228, 3-(4-(5-(9-(4-((5-bromo-4-((5-(dimethylphosphoryl)quinoxalin-6-yl)amino)pyrimidin-2-yl)amino)-5-methoxy-2-methylphenyl)-3,9-diazaspiro[5.5]undecan-3-yl)pent-1-yn-1-yl)-1-oxoisoindolin-2-yl)piperidine-2,6-dione]",1 to 100
8,"COc1cc(N2CCC(N3CCN(CCCCc4ccc(-c5ccc6c(c5)CN(C5CCC(=O)NC5=O)C6=O)cc4)CC3)CC2)ccc1Nc1ncc(Cl)c(Nc2ccccc2P(C)(C)=O)n1 (stereo not drawn) [Compound C236, 3-(5-(4-(4-(4-(1-(4-((5-chloro-4-((2-(dimethylphosphoryl)phenyl)amino)pyrimidin-2-yl)amino)-3-methoxyphenyl)piperidin-4-yl)piperazin-1-yl)butyl)phenyl)-1-oxoisoindolin-2-yl)piperidine-2,6-dione]",1 to 100
